The values that follow come from US20190313934A1, “DEVICE AND SYSTEM FOR MONITORING AND TREATING MUSCLE TENSION-RELATED MEDICAL CONDITIONS” (Biotrak Health, Inc., priority 2016, published 2019).

The conditions of test [1]: diazepam combined with EMG biofeedback; chronic anxious patients; cited from earlier work.
A short description of test [2]: Evaluation of analgesics, alone or with the prototype Halo system, on a human subject with recurring headaches. It counts as in vivo. The settings on record: one subject. How it is done:
The subject was a person in New York City with a history of recurring headaches. Tests were conducted in three stages between December 2016 and March 2017. In the first stage the subject used various over-the-counter analgesics at recommended dosages to manage headache symptoms (Sessions 1 and 2). Conditions were self-assessed prior to drug administration according to a standard headache scale, and then qualitatively reassessed for the extent of relief. In the second stage, the subject took an analgesic at the same time of using a prototype Halo™ system for 5 min (Session 3). In the third stage the subject used the prototype Halo™ system alone for a duration of 10 min on three occasions (Sessions 4-6).

As to `CN1C(=O)CN=C(c2ccccc2)c2cc(Cl)ccc21` [diazepam], in test [1], the “Effect on muscular tension” value is “effectively reduced muscular tension”.

On to `COc1ccc2cc([C@H](C)C(=O)O)ccc2c1` [naproxen], for which the Relief result in test [2] (analgesic taken at the same time as using prototype Halo system for 5 min, qualitative self-assessment) is on record as “Complete”. With `CC(=O)Oc1ccccc1C(=O)O` [aspirin], the Relief entry in test [2] (over-the-counter analgesic alone at recommended dosage, qualitative self-assessment of headache relief) is recorded as “Moderate”.
